The record followed here is US11987588B2, “Modulators of the beta-3 adrenergic receptor useful for the treatment or prevention of heart failure and disorders related thereto” (Arena Pharmaceuticals, Inc., priority 2017, dated 2024).

Structures are written as SMILES.

Sequence of Beta-3 Adrenergic Receptor (P13945 whole entry, species assumed): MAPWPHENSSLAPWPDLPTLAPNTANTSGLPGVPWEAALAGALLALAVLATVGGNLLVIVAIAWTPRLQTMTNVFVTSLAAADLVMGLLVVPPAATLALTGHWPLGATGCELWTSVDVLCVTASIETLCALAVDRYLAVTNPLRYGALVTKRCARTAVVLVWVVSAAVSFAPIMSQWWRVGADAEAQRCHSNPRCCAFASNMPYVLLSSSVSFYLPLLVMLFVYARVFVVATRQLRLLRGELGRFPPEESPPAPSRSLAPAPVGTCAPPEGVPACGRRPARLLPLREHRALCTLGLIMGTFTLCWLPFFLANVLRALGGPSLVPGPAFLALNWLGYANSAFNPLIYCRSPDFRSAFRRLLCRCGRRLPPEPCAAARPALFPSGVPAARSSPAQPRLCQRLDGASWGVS

In this test the target is Beta-3 Adrenergic Receptor (Homo sapiens (Human), UniProt P13945). Briefly: Homogeneous Time-Resolved Fluorescence (HTRF) cAMP antagonist assay, IC50 determination. It counts as cell-based. The note with it: CHO-K1 cells stably expressing recombinant receptor, isoproterenol at EC90. Here is the method:
HTRF cAMP assays were performed according to manufacturer's instructions (Cisbio, cAMP Dynamic 2 Assay Kit; #62AM4PEJ). CHO-K1 cells stably expressing recombinant receptor were harvested and suspended in warm PBS to make a 300,000 cells/mL stock. This cell suspension was dispensed into 384 well assay plates (PerkinElmer ProxiPlate #6008280) at 5 μL per well (1500 cells/well) along with a cAMP standard curve.
Compounds were dissolved and serially diluted (5-fold) in DMSO to generate a 10-point dose response stock. The stock was then diluted 100-fold in assay buffer (PBS containing 1 mM IBMX) before a volume of 2.5 μL was added to the cells (the final, top concentration of compound in the dose-response is typically 10 or 100 μM). After a brief incubation, 2.5 μL of isoproterenol stock, prepared at a concentration 4 times its EC90 at the receptor of interest, was added to the wells. The EC90 for isoproterenol, a beta-adrenergic agonist, was determined in separate experiments using standard methods to measure agonist potencies.
Following a 1-hour incubation at room temperature, 5 μL of cAMP-D2 Reagent diluted in Lysis Buffer was added to each well followed by 5 μL of Cryptate Reagent. Plates were further incubated at room temperature for 1 hour prior to reading. Time resolved fluorescence measurements were collected on a suitable, HTRF-capable plate reader.
Counts from the plate reader were fit to the cAMP standard curve on the assay plate in order to determine cAMP concentrations in each well, and these values were used to construct dose-response curves to obtain IC50 values.
Background: TR-FRET usually uses a lanthanide donor and a delayed reading to cut background.
Consider `CNS(=O)(=O)c1cccc(OC[C@@H](O)CNC2COC3(CCN(S(=O)(=O)c4ccc(C)c(C)c4)CC3)C2)c1` (stereo partly drawn) [Compound 19, 3-((2S)-3-(8-(3,4-dimethylphenylsulfonyl)-1-oxa-8-azaspiro[4.5]decan-3-ylamino)-2-hydroxypropoxy)-N-methylbenzenesulfonamide], for which the IC50 amounted to 10 nM.
`CNS(=O)(=O)c1cccc(OC[C@@H](O)CNC2COC3(CCN(S(=O)(=O)c4cccc(Br)c4)CC3)C2)c1` (stereo partly drawn) [Compound 20, 3-((2S)-3-(8-(3-bromophenylsulfonyl)-1-oxa-8-azaspiro[4.5]decan-3-ylamino)-2-hydroxypropoxy)-N-methylbenzenesulfonamide]: the IC50 was found to be 13.2 nM.
As to `CNS(=O)(=O)c1cccc(OC[C@@H](O)CNC2COC3(CCN(S(=O)(=O)c4cccc(C)c4)CC3)C2)c1` (stereo partly drawn) [Compound 21, 3-((2S)-2-hydroxy-3-(8-(m-tolylsulfonyl)-1-oxa-8-azaspiro[4.5]decan-3-ylamino)propoxy)-N-methylbenzenesulfonamide], the IC50 came to 13.4 nM.
The value for `CCC(C)c1ccc(S(=O)(=O)N2CCC3(CC2)CC(NC[C@H](O)COc2cccc(S(=O)(=O)NC)c2)CO3)cc1` (stereo partly drawn) [Compound 22, 3-((2S)-3-(8-(4-sec-butylphenylsulfonyl)-1-oxa-8-azaspiro[4.5]decan-3-ylamino)-2-hydroxypropoxy)-N-methylbenzenesulfonamide] was 15 nM; that for `CNS(=O)(=O)c1cccc(OC[C@@H](O)CNC2COC3(CCN(S(=O)(=O)c4cc(C)cc(C)c4)CC3)C2)c1` (stereo partly drawn) [Compound 23, 3-((2S)-3-(8-(3,5-dimethylphenylsulfonyl)-1-oxa-8-azaspiro[4.5]decan-3-ylamino)-2-hydroxypropoxy)-N-methylbenzenesulfonamide] was 13.8 nM; that for `CNS(=O)(=O)c1cccc(OC[C@@H](O)CNC2COC3(CCN(S(=O)(=O)c4ccc(C(=O)N(C)C)cc4)CC3)C2)c1` (stereo partly drawn) [Compound 24, 4-(3-((S)-2-hydroxy-3-(3-(N-methylsulfamoyl)phenoxy)propylamino)-1-oxa-8-azaspiro[4.5]decan-8-ylsulfonyl)-N,N-dimethylbenzamide] was 106 nM.
With `CNS(=O)(=O)c1cccc(OC[C@@H](O)CNC2COC3(CCN(S(=O)(=O)c4ccc(C(C)=O)cc4)CC3)C2)c1` (stereo partly drawn) [Compound 25, 3-((2S)-3-(8-(4-acetylphenylsulfonyl)-1-oxa-8-azaspiro[4.5]decan-3-ylamino)-2-hydroxypropoxy)-N-methylbenzenesulfonamide], the IC50 is 26 nM.
In the case of `CNS(=O)(=O)c1cccc(OC[C@@H](O)CNC2COC3(CCN(S(=O)(=O)c4ccc(F)cc4)CC3)C2)c1` (stereo partly drawn) [Compound 26, 3-((2S)-3-(8-(4-fluorophenylsulfonyl)-1-oxa-8-azaspiro[4.5]decan-3-ylamino)-2-hydroxypropoxy)-N-methylbenzenesulfonamide] it was 34.1 nM.
In the case of `CNS(=O)(=O)c1cccc(OC[C@@H](O)CNC2COC3(CCN(S(=O)(=O)c4cccc(OC)c4)CC3)C2)c1` (stereo partly drawn) [Compound 27, 3-((2S)-2-hydroxy-3-(8-(3-methoxyphenylsulfonyl)-1-oxa-8-azaspiro[4.5]decan-3-ylamino)propoxy)-N-methylbenzenesulfonamide] it was 13.8 nM; in that of `CNS(=O)(=O)c1cccc(OC[C@@H](O)CNC2COC3(CCN(S(=O)(=O)c4cccc(F)c4)CC3)C2)c1` (stereo partly drawn) [Compound 28, 3-((2S)-3-(8-(3-fluorophenylsulfonyl)-1-oxa-8-azaspiro[4.5]decan-3-ylamino)-2-hydroxypropoxy)-N-methylbenzenesulfonamide], 16.2 nM; in that of `CNS(=O)(=O)c1cccc(OC[C@@H](O)CN[C@@H]2COC3(CCN(S(=O)(=O)c4ccc5ccccc5c4)CC3)C2)c1` [Compound 29, 3—((S)-2-hydroxy-3-((S)-8-(naphthalen-2-ylsulfonyl)-1-oxa-8-azaspiro[4.5]decan-3-ylamino)propoxy)-N-methylbenzenesulfonamide], 4.53 nM.
With `CNS(=O)(=O)c1cccc(OC[C@@H](O)CN[C@H]2COC3(CCN(S(=O)(=O)c4ccc5ccccc5c4)CC3)C2)c1` [Compound 30, 3—((S)-2-hydroxy-3-((R)-8-(naphthalen-2-ylsulfonyl)-1-oxa-8-azaspiro[4.5]decan-3-ylamino)propoxy)-N-methylbenzenesulfonamide], the IC50 amounted to 4.41 nM.
As to `CNS(=O)(=O)c1cccc(OC[C@@H](O)CNC2COC3(CCN(S(=O)(=O)c4cccc(-c5ccccc5)c4)CC3)C2)c1` (stereo partly drawn) [Compound 31, 3-((2S)-3-(8-(biphenyl-3-ylsulfonyl)-1-oxa-8-azaspiro[4.5]decan-3-ylamino)-2-hydroxypropoxy)-N-methylbenzenesulfonamide], the IC50 worked out at 21 nM.
Take `CNS(=O)(=O)c1cccc(OC[C@@H](O)CNC2COC3(CCN(S(=O)(=O)c4cccc(C#N)c4)CC3)C2)c1` (stereo partly drawn) [Compound 32, 3-((2S)-3-(8-(3-cyanophenylsulfonyl)-1-oxa-8-azaspiro[4.5]decan-3-ylamino)-2-hydroxypropoxy)-N-methylbenzenesulfonamide]: the IC50 amounted to 16.6 nM.
Take `CNS(=O)(=O)c1cccc(OC[C@@H](O)CNC2COC3(CCN(S(=O)(=O)c4ccccc4C(F)(F)F)CC3)C2)c1` (stereo partly drawn) [Compound 33, 3-((2S)-2-hydroxy-3-(8-(2-(trifluoromethyl)phenylsulfonyl)-1-oxa-8-azaspiro[4.5]decan-3-ylamino)propoxy)-N-methylbenzenesulfonamide]: the IC50 worked out at 17.6 nM.
As for `CNS(=O)(=O)c1cccc(OC[C@@H](O)CNC2COC3(CCN(S(=O)(=O)c4ccccc4F)CC3)C2)c1` (stereo partly drawn) [Compound 34, 3-((2S)-3-(8-(2-fluorophenylsulfonyl)-1-oxa-8-azaspiro[4.5]decan-3-ylamino)-2-hydroxypropoxy)-N-methylbenzenesulfonamide], the IC50 is 24.2 nM.
On to `CNS(=O)(=O)c1cccc(OC[C@@H](O)CNC2COC3(CCN(S(=O)(=O)c4ccccc4Cl)CC3)C2)c1` (stereo partly drawn) [Compound 35, 3-((2S)-3-(8-(2-chlorophenylsulfonyl)-1-oxa-8-azaspiro[4.5]decan-3-ylamino)-2-hydroxypropoxy)-N-methylbenzenesulfonamide], for which the IC50 was 18.9 nM.
Consider `CNS(=O)(=O)c1cccc(OC[C@@H](O)CNC2COC3(CCN(S(=O)(=O)c4ccc(C(C)(C)C)cc4)CC3)C2)c1` (stereo partly drawn) [Compound 36, 3-((2S)-3-(8-(4-tert-butylphenylsulfonyl)-1-oxa-8-azaspiro[4.5]decan-3-ylamino)-2-hydroxypropoxy)-N-methylbenzenesulfonamide], for which the IC50 was 13.2 nM.
In the case of `CNS(=O)(=O)c1cccc(OC[C@@H](O)CNC2COC3(CCN(S(=O)(=O)c4ccc(S(C)(=O)=O)cc4)CC3)C2)c1` (stereo partly drawn) [Compound 37, 3-((2S)-2-hydroxy-3-(8-(4-(methylsulfonyl)phenylsulfonyl)-1-oxa-8-azaspiro[4.5]decan-3-ylamino)propoxy)-N-methylbenzenesulfonamide] it was 49.3 nM.
Consider `CNS(=O)(=O)c1cccc(OC[C@@H](O)CNC2COC3(CCN(S(=O)(=O)c4cccc(C(F)(F)F)c4)CC3)C2)c1` (stereo partly drawn) [Compound 38, 3-((2S)-2-hydroxy-3-(8-(3-(trifluoromethyl)phenylsulfonyl)-1-oxa-8-azaspiro[4.5]decan-3-ylamino)propoxy)-N-methylbenzenesulfonamide], for which the concentration for half-maximal inhibition (IC50) stood at 18.7 nM.
`CNS(=O)(=O)c1cccc(OC[C@@H](O)CNC2COC3(CCN(S(=O)(=O)c4ccccc4C#N)CC3)C2)c1` (stereo partly drawn) [Compound 39, 3-((2S)-3-(8-(2-cyanophenylsulfonyl)-1-oxa-8-azaspiro[4.5]decan-3-ylamino)-2-hydroxypropoxy)-N-methylbenzenesulfonamide]: the half-maximal inhibitory concentration (IC50) turned out to be 30.7 nM.
For the molecule `CNS(=O)(=O)c1cccc(OC[C@@H](O)CNC2COC3(CCN(S(=O)(=O)c4ccc(C(=O)O)cc4)CC3)C2)c1` (stereo partly drawn) [Compound 40, 4-(3-((S)-2-hydroxy-3-(3-(N-methylsulfamoyl)phenoxy)propylamino)-1-oxa-8-azaspiro[4.5]decan-8-ylsulfonyl)benzoic acid], the IC50 worked out at 577 nM.
In the case of `CNS(=O)(=O)c1cccc(OC[C@@H](O)CNC2COC3(CCN(S(=O)(=O)c4ccc5c(c4)CCCO5)CC3)C2)c1` (stereo partly drawn) [Compound 41, 3-((2S)-3-(8-(chroman-6-ylsulfonyl)-1-oxa-8-azaspiro[4.5]decan-3-ylamino)-2-hydroxypropoxy)-N-methylbenzenesulfonamide] it was 6.82 nM; in that of `CNS(=O)(=O)c1cccc(OC[C@@H](O)CNC2COC3(CCN(S(=O)(=O)c4ccc(NC(C)=O)cc4)CC3)C2)c1` (stereo partly drawn) [Compound 42, N-(4-(3-((S)-2-hydroxy-3-(3-(N-methylsulfamoyl)phenoxy)propylamino)-1-oxa-8-azaspiro[4.5]decan-8-ylsulfonyl)phenyl)acetamide], 31.9 nM.
On to `CNS(=O)(=O)c1cccc(OC[C@@H](O)CNC2COC3(CCN(S(=O)(=O)c4ccccc4S(C)(=O)=O)CC3)C2)c1` (stereo partly drawn) [Compound 43, 3-((2S)-2-hydroxy-3-(8-(2-(methylsulfonyl)phenylsulfonyl)-1-oxa-8-azaspiro[4.5]decan-3-ylamino)propoxy)-N-methylbenzenesulfonamide], for which the 50% inhibitory concentration (IC50) came to 74 nM.

What is called IC50 is the concentration at which inhibition is half-maximal.
